Like-named read-outs stand apart in the source and are kept apart here.
Tests used:
[1] = Salt screening, stability of salt forms; assay type: physicochemical; conditions: salt screening of Compound 1
Protocol: The salt screen was performed using the Crystal16 equipment.

[2] = Kinetic solubility in bio-relevant buffers (FaSSIF, FeSSIF, SGF); assay type: physicochemical; conditions: 37° C.
[3] = Dynamic Vapor Sorption (DVS), hygroscopicity/water uptake; assay type: physicochemical; conditions: for Hygroscopicity: DVS up to 80% RH at 25° C.; for water uptake at 80% RH: DVS; for water uptake at 80% RH / Form change (FC) after DVS: 25° C.; for Form change (FC) after DVS: at the end of the DVS test, up to 80% RH
Protocol: The Dynamic Vapour Sorption studies were performed using a Surface Measurement Systems Ltd. DVS-1 No Video, equipment #2126. The sample is loaded into balance pan, typically 20-30 mg, and equilibrated at 0% RH. […] After completion of the sorption cycle, the sample was dried using the same method. The software used for data collection is DVSWin v3.01 No Video. Data analysis is performed using DVS Standard Analysis Suite v6.3.0 (Standard).

[4] = Pharmacokinetic testing of salt forms, oral dosing in rats (Example 5); assay type: in vivo; conditions: fasted male Sprague-Dawley rats, mean values
[5] = Solid state stability at 40° C./75% RH for 3 weeks (HPLC purity, form change); assay type: physicochemical; conditions: for chemical stability (HPLC purity change, in words): 3 weeks at 40° C. and 75% relative humidity; for Form Change at 3 weeks / HPLC Purity at 3 weeks: 3 weeks under 40° C./75% RH; for Initial HPLC Purity: before storage
Protocol: Agilent 1260 HPLC was utilized and detailed chromatographic conditions for purity and solubility measurement are listed in Table 15 below.
The table below summarizes the characterization and solid state stability results observed for FB and Forms A, B, and D. Samples were prepared and data was obtained according to the procedures and processes listed above unless otherwise specified. More procedures, processes, and results are listed below in Table 16.

[6] = pH solubility in pH 2, 4, 6, 8 and 10 buffers; assay type: physicochemical; conditions: 37° C.; for Form change (FC) of residual solid, pH 4.0: pH 4.0 buffer; for Form change (FC) of residual solid, pH 6.0: pH 6.0 buffer; for Form change (FC) of residual solid, pH 8.0: pH 8.0 buffer; for Form change (FC) of residual solid, pH 10.0: pH 10.0 buffer
[7] = Stability studies of crystalline forms (Table 17, stability by HPLC); assay type: physicochemical; conditions: for Stability by HPLC (in words): stability studies of Table 17; for Stability Results, 40° C.: stored at 40° C.; for Stability Results, 40° C./75% RH: stored at 40° C./75% RH; for Stability Results, 60° C.: stored at 60° C.; for Stability Results, 60° C./75% RH: stored at 60° C./75% RH
[8] = Moisture sorption isotherm of crystalline forms; assay type: physicochemical; conditions: for crystal form by XRPD after the moisture absorption/desorption cycle: XRPD before and after moisture sorption isotherm
[9] = dose mg/kg: Compound 1 18.2, Phosphate 14.3, Tartrate 18.7, Malate 18.6, Succinate 18.7, Benzenesulfonate 17.6

Row | Structure (SMILES) | Form change (FC) of residual solid, FaSSIF ([2]; FaSSIF, 24 hours) | chemical stability (HPLC purity change, in words) [5] | Form Change at 3 weeks [5] | HPLC Purity at 3 weeks [5] [area %] | Initial HPLC Purity [5] [area %] | Form change (FC) of residual solid, pH 4.0 ([6]; 24 hours) | Form change (FC) of residual solid, pH 6.0 ([6]; 24 hours) | Form change (FC) of residual solid, pH 8.0 ([6]; 24 hours) | Form change (FC) of residual solid, pH 10.0 ([6]; 24 hours) | Stability Results, Initial [7] [%] | Stability Results, 40° C. [7] [%] | Stability Results, 40° C./75% RH [7] [%] | Stability Results, 60° C. [7] [%] | Stability Results, 60° C./75% RH [7] [%] | Moisture sorption isotherm (in words) [8] | crystal form by XRPD after the moisture absorption/desorption cycle [8] | other results
1 | CN1CCN(Cc2ccc(Nc3ncc(Cl)c(Nc4ccccc4S(=O)(=O)N(C)C)n3)cc2)CC1.O=P(O)(O)O [Phosphate Salt] |  |  |  |  |  |  |  |  |  |  |  |  |  |  |  |  | stability of the salt form (in words) [1]: undesirable stability characteristics
2 | CN1CCN(Cc2ccc(Nc3ncc(Cl)c(Nc4ccccc4S(=O)(=O)N(C)C)n3)cc2)CC1 [Compound 1, 2-((5-chloro-2-((4-((4-methylpiperazin-1-yl)methyl)phenyl)amino)pyrimidin-4-yl)amino)-N,N-dimethylbenzenesulfonamide] | No | no significant HPLC purity decrease | No | 98.6 | 98.3 | Yes | No | No | No |  |  |  |  |  |  |  | Form change (FC) of residual solid, FeSSIF ([2]; FeSSIF, 24 hours): No; Form change (FC) of residual solid, SGF ([2]; SGF, 24 hours): No; Hygroscopicity ([3]; listed as Free Base): Non-hygroscopic/; Hygroscopicity ([3]; listed as free base): non-hygroscopic; water uptake at 80% RH ([3]; listed as Free Base): 0.07%; water uptake at 80% RH ([3]; listed as free base): less than 0.2%; Form change (FC) after DVS ([3]; listed as Free Base): No; Form change (FC) after DVS ([3]; listed as free base): no form change; bioavailability ([4]; rat, plasma, 18.2 mg/kg, dose mg/kg: Compound 1 18.2, Phosphate 14.3, Tartrate 18.7, Malate 18.6, Succinate 18.7, Benzenesulfonate 17.6): 26.9%; AUC(0-t) ([4]; rat, plasma, 18.2 mg/kg, dose mg/kg: Compound 1 18.2, Phosphate 14.3, Tartrate 18.7, Malate 18.6, Succinate 18.7, Benzenesulfonate 17.6, read-out: AUC0-24 hours): 458 ng·h/mL; Cmax ([4]; rat, plasma, 18.2 mg/kg, dose mg/kg: Compound 1 18.2, Phosphate 14.3, Tartrate 18.7, Malate 18.6, Succinate 18.7, Benzenesulfonate 17.6, read-out: Cmax): 116 ng/mL; Tmax ([4]; rat, plasma, 18.2 mg/kg, dose mg/kg: Compound 1 18.2, Phosphate 14.3, Tartrate 18.7, Malate 18.6, Succinate 18.7, Benzenesulfonate 17.6, read-out: Tmax): 50 min; Form change (FC) of residual solid, pH 2.0 ([6]; pH 2.0 buffer, 24 hours): Yes
3 | CN1CCN(Cc2ccc(Nc3ncc(Cl)c(Nc4ccccc4S(=O)(=O)N(C)C)n3)cc2)CC1.O=C(O)C(O)C(O)C(=O)O.O=C(O)C(O)C(O)C(=O)O [Form A, 2-((5-chloro-2-((4-((4-methylpiperazin-1-yl)methyl)phenyl)amino)pyrimidin-4-yl)amino)-N,N-dimethylbenzenesulfonamide di-tartrate salt] |  | no significant HPLC purity decrease | No | 99.7 | 99.6 | Yes | Yes | Yes | Yes | 99.3 | 99.3 | 99.3 | 99.3 | 99.3 | hygroscopic | maintained | Stability by HPLC (in words) ([7]; di-tartrate salt): No significant changes; Stability by HPLC (in words) ([7]; listed as A, di-tartrate salt): Stable; water uptake at 80% RH ([3]; di-tartrate salt): 4.6%; Form change (FC) after DVS [3]: No; pH solubility compared between polymorphs (in words) ([6]; pH 2, 4 and 6 buffers): higher solubility than other polymorphs
4 | CN1CCN(Cc2ccc(Nc3ncc(Cl)c(Nc4ccccc4S(=O)(=O)N(C)C)n3)cc2)CC1.O=C(O)C[C@H](O)C(=O)O [Malate Salt] |  |  |  |  |  |  |  |  |  |  |  |  |  |  |  |  | AUC0-24 hours [4, 9]: 515 ng·h/mL; Cmax [4, 9]: 134 ng/mL; Tmax [4, 9]: 30 min
5 | CN1CCN(Cc2ccc(Nc3ncc(Cl)c(Nc4ccccc4S(=O)(=O)N(C)C)n3)cc2)CC1.O=C(O)C(O)C(O)C(=O)O [Form D, 2-((5-chloro-2-((4-((4-methylpiperazin-1-yl)methyl)phenyl)amino)pyrimidin-4-yl)amino)-N,N-dimethylbenzenesulfonamide mono-tartrate salt] | Yes | no significant HPLC purity decrease | No | 98.3 | 98.8 | Yes | Yes | Yes | Yes | 98.4 | 98.2 | 98.4 | 98.2 | 98.2 | hygroscopic | transformed to the other forms | Stability by HPLC (in words) ([7]; listed as D, mono-tartrate salt): Stable; Stability by HPLC (in words) ([7]; mono-tartrate salt): No significant changes; Kinetic solubility in FaSSIF compared between forms (in words) ([2]; FaSSIF): lower solubility than other Forms A and B; water uptake at 80% RH ([3]; mono-tartrate salt): 5.2%; Form change (FC) after DVS ([3]; mono-tartrate salt): form change observed and Yes

Source: patent publication US20220380348A1, “AXL INHIBITOR FORMULATIONS” (Sumitomo Dainippon Pharma Oncology, Inc., priority 2019, published 2022)
